Legend:
[1] = open-tubular capillary electrochromatography (CEC), permeability k′ parameter; format: in vitro ADME; details: pH 7.4 HEPES buffer 40 mM, migration times in coated and uncoated capillary, mean ± SD of three independent experiments
[2] = experimental in vivo measurements from rats, data retrieved from literature; cited from earlier work
[3] = Sirius T3 automated potentiometric (pH-metric) titrations, pKa; details: ionic strength adjusted (ISA) water ([…] KCl)
[4] = Sirius T3 automated potentiometric titrations with n-octanol, log P / log D; details: n-octanol/water
[5] = pKa ± SD, […] ISA water or Yasuda–Shedlovsky extrapolation from methanol cosolvent, value used for regression

k′ ± SD (CEC) [1] | pKa [3, 5] | logP [4] | logD ([4]; pH 7.4) | SMILES | Log BB [2] | also measured
0.0034 ± 0.0004 |  |  |  | C=C[C@H]1C[N@@]2CC[C@H]1C[C@@H]2[C@@H](O)c1ccnc2ccc(OC)cc12 [quinidine] | 0.33 | 
0.00083 ± 0.00015 |  |  |  | CCCCC1C(=O)N(c2ccccc2)N(c2ccccc2)C1=O [phenylbutazone] | −0.52 | 
−0.00256 ± 0.00041 | 8.43 ± 0.01 | 0.34 ± 0.02 | -0.75 | CNC(=C[N+](=O)[O-])NCCSCc1ccc(CN(C)C)o1 [ranitidine] | −1.23 | 
−0.01399 ± 0.00228 | 9.39 | 4.54 | 2.55 | CN(C)CCCN1c2ccccc2Sc2ccccc21 [promazine] | 1.23 | logD ([4]; pH 1): 0.83; logD ([4]; pH 1.2): 0.83; logD ([4]; pH 2): 0.83; logD ([4]; pH 3): 0.83; logD ([4]; pH 4): 0.84; logD ([4]; pH 5): 0.91; logD ([4]; pH 6): 1.32; logD ([4]; pH 6.5): 1.71; logD ([4]; pH 7): 2.17; logD ([4]; pH 8): 3.14; logD ([4]; pH 9): 4; logD ([4]; pH 10): 4.45; logD ([4]; pH 11): 4.53; logD ([4]; pH 12): 4.54
−0.0108 ± 0.00292 | 6.83 ± 0.04 | 2.98 | 2.88 | O=c1n(CCCN2CCN(c3cccc(Cl)c3)CC2)nc2ccccn12 [trazodone] | 0.30 | 
0.00428 ± 0.00056 | 9.51 | 0.09 ± 0.01 | 0.09 | Cc1cn([C@H]2C[C@H](N=[N+]=[N-])[C@@H](CO)O2)c(=O)[nH]c1=O [zidovudine] |  | 
0.00202 ± 0.00061 |  |  |  | CC(C)NCC(O)COc1cccc2ccccc12 (stereo not drawn) [propranolol] | 0.85 | 
 | 9.25 ± 0.01 | 5.38 ± 0.03 | 3.54 | CSc1ccc2c(c1)N(CCC1CCCCN1C)c1ccccc1S2 (stereo not drawn) [thioridazine] | 0.24 | 
−0.00882 ± 0.00356 | 9.6 ± 0.05 | 1.19 ± 0.01 | -1.01 | CN(C)CCc1c[nH]c2ccc(C[C@H]3COC(=O)N3)cc12 [zolmitriptan] | −1.40 | 
0.02255 ± 0.00676 |  | 2.31 ± 0.01 | -0.98 | O=C(O)c1ccccc1O [salicylic acid] |  | 
 | 8.71 ± 0.05 | 2.73 ± 0.02 | 1.48 | COc1ccc(CN(CCN(C)C)c2ccccn2)cc1 [mepyramine] |  | 
−0.02148 ± 0.00155 | 7.25 ± 0.03 | 3.74 ± 0.01 | 3.5 | CN1CCN2c3ccccc3Cc3ccccc3C2C1 (stereo not drawn) [mianserin] | 0.99 | 
0.02144 ± 0.00689 | 9.76 ± 0.08 | 3.39 ± 0.04 |  | Fc1ccc([C@@H]2CCNC[C@H]2COc2ccc3c(c2)OCO3)cc1 [paroxetine] | 0.48 | 
0.0105 ± 0.0046 |  |  |  | COc1ccc2cc([C@H](C)C(=O)O)ccc2c1 [naproxen] | −1.70 | 
−0.00563 ± 0.00136 |  |  |  | CCN(CC)CCNC(=O)c1cc(Cl)c(N)cc1OC [metoclopramide] | 0.08 | 
0.2028 ± 0.00151 |  | 6.14 ± 0.01 | 5.53 | CN1CCN(CCCN2c3ccccc3Sc3ccc(C(F)(F)F)cc32)CC1 [trifluoperazine] | 1.44 | 

The next lines start with the molecule.

SMILES | k′ ± SD (CEC) [1] | pKa [3, 5] | logP [4] | logD ([4]; pH 7.4) | Log BB [2] | also measured
Clc1cccc(Cl)c1N=C1NCCN1 [clonidine] | 0.00321 ± 0.00046 |  |  |  | 0.11 | pKa [3]: 8.12 ± 0.01
OCCN1CCN(CCCN2c3ccccc3Sc3ccc(C(F)(F)F)cc32)CC1 [fluphenazine] | 0.111 ± 0.00192 | 7.79 ± 0.07 | 5.12 ± 0.06 | 4.58 | 1.51 | 
O=C1CC2(CCCC2)CC(=O)N1CCCCN1CCN(c2ncccn2)CC1 [buspirone] |  | 7.62 |  |  |  | 
CNCCC=C1c2ccccc2CCc2ccccc21 [nortriptyline] | −0.01133 ± 0.0021 | 10.05 ± 0.03 | 4.29 ± 0.01 | 1.79 | 1.04 | 
OCCOCCN1CCN(C(c2ccccc2)c2ccc(Cl)cc2)CC1 (stereo not drawn) [hydroxyzine] | −0.00058 ± 0.00031 | 7.66 ± 0.04 | 3.73 ± 0.03 | 3.34 | 0.90 | 
CC(=O)Oc1ccccc1C(=O)O [acetylsalicylic acid] | 0.03441 ± 0.00987 |  | 1.31 ± 0.01 | -2.73 | −1.30 | 
CC(C)Cc1ccc(C(C)C(=O)O)cc1 (stereo not drawn) [ibuprofen] | −0.0369 ± 0.00011 |  | 3.8 | 1.07 |  | 
C[C@H]1COc2c(N3CCN(C)CC3)c(F)cc3c(=O)c(C(=O)O)cn1c23 [levofloxacin] |  |  | 0.82 ± 0.01 | 0.77 | −0.70 | 
CN(C)CCCN1c2ccccc2CCc2ccccc21 [imipramine] |  |  |  |  | 1.30 | 
O=C(c1ccccc1)c1ccc2n1CCC2C(=O)O (stereo not drawn) [ketorolac] | 0.02127 ± 0.00131 | 3.64 ± 0.06 | 2.9 ± 0.04 | -0.05 | −2.00 | 
CN(C)CCC=C1c2ccccc2CCc2ccccc21 [amitriptyline] | 0.00004 ± 0.00001 | 9.23 ± 0.08 | 4.68 ± 0.02 | 2.84 | 1.30 | 
CN(C)CCCN1c2ccccc2Sc2ccc(Cl)cc21 [chlorpromazine] |  | 9.07 ± 0.01 | 5.1 ± 0.03 | 3.43 |  | 
Cc1nc2n(c(=O)c1CCN1CCC(c3noc4cc(F)ccc34)CC1)CCCC2 [risperidone] | 0.00698 ± 0.00377 |  | 3.09 ± 0.03 |  |  | 
CN1CCN(C2=Nc3cc(Cl)ccc3Nc3ccccc32)CC1 [clozapine] | 0.00693 ± 0.00245 |  | 3.92 ± 0.1 | 3.52 | 0.60 | 
CNCCCN1c2ccccc2CCc2ccccc21 [desipramine] | −0.01523 ± 0.00343 |  |  |  | 1.20 | 
CC(C)NCC(O)COc1ccc(CC(N)=O)cc1 (stereo not drawn) [atenolol] | 0.00183 ± 0.00051 |  |  |  |  | 
CC(C)NCC(O)COc1cccc2[nH]ccc12 (stereo not drawn) [pindolol] |  |  |  |  | 0.30 | pKa [3]: 9.62 ± 0.07
CNCCc1ccccn1 [betahistine] | 0.03582 ± 0.00587 | 9.84 | 0.49 ± 0.01 | -1.95 | −0.30 | 
O=C(CCCN1CCC(O)(c2ccc(Br)cc2)CC1)c1ccc(F)cc1 [bromperidol] | −0.00795 ± 0.00034 | 8.45 ± 0.1 | 3.87 ± 0.05 | 2.81 | 1.38 | 
O=C(CCCN1CCC(O)(c2ccc(Cl)cc2)CC1)c1ccc(F)cc1 [haloperidol] | −0.00906 ± 0.00138 | 8.66 ± 0.08 | 4.37 ± 0.08 | 3.18 |  | 
CN(C)CCCC1(c2ccc(F)cc2)OCc2cc(C#N)ccc21 (stereo not drawn) [citalopram] | 0.00405 ± 0.00229 |  |  |  | 0.48 | 
COc1ccc2c(c1)c(CC(=O)O)c(C)n2C(=O)c1ccc(Cl)cc1 [indomethacin] | 0.01869 ± 0.00624 |  | 6.31 ± 0.12 | 3.92 | −1.26 | 
CN1[C@@H]2CC[C@H]1C[C@@H](OC(=O)C(CO)c1ccccc1)C2 (stereo partly drawn) [atropine] | 0.0044 ± 0.00309 |  |  |  |  | 
O=C(O)Cc1ccccc1Nc1c(Cl)cccc1Cl [diclofenac] | 0.00802 ± 0.0032 |  | 4.33 ± 0.01 | 1.26 | −1.70 | 

— PMC12785511, “Integrative Profiling for BBB Permeability Using Capillary Electrochromatography, Experimental Physicochemical Parameters, and Ensemble Machine Learning” (International Journal of Molecular Sciences, 2025)
